Assay results as given in a compilation of properties of binary mixtures (doi:10.1016/j.molliq.2022.120193).

Test: xn = mol fraction of the nth substance listed
Conditions: 100 kPa

CC[N+](C)(CC)CCOC.O=S(=O)([N-]S(=O)(=O)C(F)(F)F)C(F)(F)F + CC[N+](C)(CC)CCOC.F[B-](F)(F)F
x1 = 1
Conditions	electrical conductivity [S/m]
293.15 K	0.237
303.15 K	0.382
308.15 K	0.476
313.15 K	0.572
318.15 K	0.683
323.15 K	0.794
328.15 K	0.922
333.15 K	1.06
338.15 K	1.2
343.15 K	1.32

CC[N+](C)(CC)CCOC.O=S(=O)([N-]S(=O)(=O)C(F)(F)F)C(F)(F)F + FC(S(=O)(=O)[N-]S(=O)(=O)C(F)(F)F)(F)F.C(CCC)N1C(=[N+](C=C1)C)C
x1 = 1
Conditions	electrical conductivity [S/m]
293.15 K	0.237
298.15 K	0.311
303.15 K	0.382
308.15 K	0.476
313.15 K	0.572
318.15 K	0.683
323.15 K	0.794
328.15 K	0.922
333.15 K	1.06
338.15 K	1.2
343.15 K	1.32

CC[N+](C)(CC)CCOC.F[B-](F)(F)F + CC[N+](C)(CC)CCOC.O=S(=O)([N-]S(=O)(=O)C(F)(F)F)C(F)(F)F
electrical conductivity [S/m]
Conditions	x2 = 0	x2 = 0.1	x2 = 0.2	x2 = 0.3	x2 = 0.4	x2 = 0.5	x2 = 0.6	x2 = 0.7	x2 = 0.8	x2 = 0.9
293.15 K	0.096	–	0.133	0.14	0.149	0.161	0.175	0.168	0.184	0.198
298.15 K	0.136	0.161	0.174	–	0.202	0.214	0.234	–	0.251	–
303.15 K	0.19	0.218	0.233	0.25	0.264	0.277	0.304	0.298	0.324	–
308.15 K	0.255	0.292	0.305	–	0.338	–	–	0.381	0.407	0.423
313.15 K	0.343	0.381	–	–	0.425	0.444	0.47	0.472	–	0.509
318.15 K	0.437	0.483	0.485	0.506	–	0.541	0.569	–	0.599	0.625
323.15 K	0.553	0.596	–	–	0.636	0.652	0.684	0.687	0.709	0.731
328.15 K	0.68	0.737	–	0.734	0.763	0.779	–	0.804	0.833	0.863
333.15 K	0.829	–	0.858	0.873	0.897	–	0.934	–	0.964	0.993
338.15 K	1	1.06	1.02	1.02	1.04	1.06	1.08	–	1.11	1.13
343.15 K	1.18	1.24	–	–	1.2	1.22	1.24	1.23	–	1.29

CC[N+](C)(CC)CCOC.F[B-](F)(F)F + CCCC[n+]1ccn(C)c1C.F[B-](F)(F)F
electrical conductivity [S/m]
Conditions	x1 = 0.1	x1 = 0.2	x1 = 0.3	x1 = 0.4	x1 = 0.5	x1 = 0.6	x1 = 0.7	x1 = 0.8	x1 = 0.9	x1 = 1
313.15 K	0.231	0.244	0.282	–	0.29	0.296	–	0.321	0.348	0.343
318.15 K	0.305	–	0.354	–	–	0.38	0.392	–	0.445	–
323.15 K	0.392	0.404	0.437	0.445	0.465	0.472	0.498	0.519	–	0.553
328.15 K	–	–	0.534	0.541	–	0.579	0.614	0.639	–	0.68
333.15 K	0.604	0.613	0.643	0.67	–	0.72	0.766	0.782	0.822	0.829
338.15 K	0.727	0.736	0.758	–	0.79	0.828	0.884	0.939	0.995	1
343.15 K	0.861	0.871	0.9	–	0.936	0.978	1.03	1.09	–	1.18
348.15 K	1.02	1.03	1.05	1.07	1.09	–	1.2	1.27	1.37	1.39
353.15 K	1.16	–	–	–	–	1.32	–	1.42	1.59	–
358.15 K	1.31	1.35	–	–	1.46	1.51	1.56	–	1.82	1.86
363.15 K	1.5	1.53	1.58	1.62	–	1.73	1.77	1.82	2.01	–

CCCC[n+]1ccn(C)c1C.F[B-](F)(F)F + FC(S(=O)(=O)[N-]S(=O)(=O)C(F)(F)F)(F)F.C(CCC)N1C(=[N+](C=C1)C)C
x2 = 0
Conditions	electrical conductivity [S/m]
318.15 K	0.153
333.15 K	0.335
343.15 K	0.531
348.15 K	0.63
353.15 K	0.749
358.15 K	0.867
363.15 K	0.995

CCCCn1cc[n+](C)c1C.O=S(=O)([N-]S(=O)(=O)C(F)(F)F)C(F)(F)F + CCCC[n+]1ccn(C)c1C.F[B-](F)(F)F
electrical conductivity [S/m]
Conditions	x1 = 0.1	x1 = 0.2	x1 = 0.3	x1 = 0.4	x1 = 0.5	x1 = 0.6	x1 = 0.7	x1 = 0.8	x1 = 0.9	x1 = 1
313.15 K	0.231	0.249	0.265	0.305	–	0.32	0.35	0.403	0.476	0.465
318.15 K	0.301	0.32	–	0.378	–	0.394	0.432	–	0.572	0.566
323.15 K	0.381	–	–	–	0.476	0.482	0.521	0.59	0.683	0.665
328.15 K	0.474	0.49	0.508	0.54	0.572	0.581	0.617	0.698	0.812	0.777
333.15 K	0.587	0.6	0.617	0.645	0.68	–	0.709	0.816	0.94	0.901
338.15 K	0.707	0.715	–	–	0.796	–	0.839	0.949	1.08	1.04
343.15 K	0.844	0.848	0.859	0.894	0.931	0.952	0.963	1.08	1.23	1.18
348.15 K	0.997	0.995	1.01	–	1.07	1.08	1.09	–	–	1.37
353.15 K	1.16	1.15	1.16	1.18	1.23	1.23	1.24	–	1.56	1.54
358.15 K	–	1.31	1.32	1.34	–	1.4	–	–	1.74	–
363.15 K	1.5	–	1.5	1.51	–	1.57	1.59	1.64	1.91	1.87

CCCCn1cc[n+](C)c1C.O=S(=O)([N-]S(=O)(=O)C(F)(F)F)C(F)(F)F + CC[N+](C)(CC)CCOC.O=S(=O)([N-]S(=O)(=O)C(F)(F)F)C(F)(F)F
electrical conductivity [S/m]
Conditions	x2 = 0	x2 = 0.1	x2 = 0.2	x2 = 0.3	x2 = 0.4	x2 = 0.5	x2 = 0.6	x2 = 0.7	x2 = 0.8	x2 = 0.9
293.15 K	–	0.191	–	0.195	0.201	–	0.206	0.211	0.21	0.21
298.15 K	–	0.253	–	0.259	0.263	0.264	0.268	0.275	0.28	0.28
303.15 K	0.302	0.323	0.326	0.325	0.336	0.337	0.345	0.355	0.351	0.351
308.15 K	–	0.402	0.403	0.407	0.414	0.423	0.426	0.432	0.434	0.434
313.15 K	0.465	0.498	0.497	0.499	0.509	–	0.515	–	0.56	0.56
318.15 K	0.566	0.589	–	0.601	0.611	0.616	0.62	0.638	–	0.648
323.15 K	–	0.705	0.71	0.722	0.726	0.735	0.742	–	0.763	0.763
328.15 K	–	–	0.825	–	–	0.865	0.87	0.876	0.902	–
333.15 K	0.901	0.965	0.962	0.969	0.973	0.991	–	1.01	1.02	1.02
338.15 K	1.04	1.1	–	1.12	1.12	1.13	1.13	1.16	1.17	1.17
343.15 K	1.18	–	–	1.27	1.27	1.28	1.29	1.32	–	1.33

CCCC[n+]1ccn(C)c1C.F[B-](F)(F)F + CC[N+](C)(CC)CCOC.F[B-](F)(F)F
x2 = 0
Conditions	electrical conductivity [S/m]
318.15 K	0.153
323.15 K	0.202
328.15 K	0.26
353.15 K	0.749
358.15 K	0.867
363.15 K	0.995
